Data taken from patent publication US10251395B2, “Substituted furano-/thienocycloalkylamino-2-pyrimidine derivatives and use thereof for controlling undesired plant growth” (Bayer CropScience Aktiengesellschaft, priority 2015, dated 2019).

Legend:
Abutilon theophrasti [1] = test: Pre-emergence herbicidal effect; assay type: in vivo; conditions: Dosage 320 g/ha, scored visually after 3 weeks
Method in brief: (§1)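 After seeds are covered with sandy loam soil, the formulated compound is sprayed onto the soil surface as an aqueous suspension or emulsion containing 0.2% wetting agent. Three weeks later in the greenhouse, damage is rated by eye from 0% (like controls) to 100% (dead).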

Alopecurus myosuroides [2] = test: Pre-emergence herbicidal effect; assay type: in vivo; conditions: scored visually after 3 weeks
Method in brief: as §1

Amaranthus retroflexus [3] = test: Pre-emergence herbicidal effect; assay type: in vivo; conditions: scored visually after 3 weeks
Method in brief: as §1

Lolium multiflorum [4] = test: Pre-emergence herbicidal effect; assay type: in vivo; conditions: scored visually after 3 weeks
Method in brief: as §1

Matricaria inodora [5] = test: Pre-emergence herbicidal effect; assay type: in vivo; conditions: scored visually after 3 weeks
Method in brief: as §1

Polygonum convolvulus [6] = test: Pre-emergence herbicidal effect; assay type: in vivo; conditions: scored visually after 3 weeks
Method in brief: as §1

Setaria viridis [7] = test: Pre-emergence herbicidal effect; assay type: in vivo; conditions: scored visually after 3 weeks
Method in brief: as §1

Stellaria media [8] = test: Pre-emergence herbicidal effect; assay type: in vivo; conditions: scored visually after 3 weeks
Method in brief: as §1

Veronica persica [9] = test: Pre-emergence herbicidal effect; assay type: in vivo; conditions: scored visually after 3 weeks
Method in brief: as §1

Viola tricolor [10] = test: Pre-emergence herbicidal effect; assay type: in vivo; conditions: scored visually after 3 weeks
Method in brief: as §1

Alopecurus myosuroides [11] = test: Post-emergence herbicidal effect; assay type: in vivo; conditions: 320 g/ha, assessed visually after about 3 weeks vs untreated controls
Method in brief: (§2)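 Visual % damage vs untreated plants, ~3 wk after spraying (100% = dead, 0% = as control). Post-emergence foliar spray at one-leaf stage; WP/EC in water, 600–800 L/ha + 0.2% wetting agent; sandy loam, greenhouse.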

Viola tricolor [12] = test: Post-emergence herbicidal effect; assay type: in vivo; conditions: assessed visually after about 3 weeks vs untreated controls
Method in brief: as §2

Avena fatua = test: Pre-emergence herbicidal effect; assay type: in vivo; conditions: Dosage 320 g/ha, scored visually after 3 weeks
Method in brief: as §1

Abutilon theophrasti [13] = test: Post-emergence herbicidal effect; assay type: in vivo; conditions: assessed visually after about 3 weeks vs untreated controls
Method in brief: as §2

Amaranthus retroflexus [14] = test: Post-emergence herbicidal effect; assay type: in vivo; conditions: assessed visually after about 3 weeks vs untreated controls
Method in brief: as §2

Echinochloa crus-galli [15] = test: Post-emergence herbicidal effect; assay type: in vivo; conditions: 320 g/ha, assessed visually after about 3 weeks vs untreated controls
Method in brief: as §2

Ipomoea purpurea = test: Post-emergence herbicidal effect; assay type: in vivo; conditions: assessed visually after about 3 weeks vs untreated controls
Method in brief: as §2

Lolium multiflorum [16] = test: Post-emergence herbicidal effect; assay type: in vivo; conditions: assessed visually after about 3 weeks vs untreated controls
Method in brief: as §2

Matricaria inodora [17] = test: Post-emergence herbicidal effect; assay type: in vivo; conditions: assessed visually after about 3 weeks vs untreated controls
Method in brief: as §2

Polygonum convolvulus [18] = test: Post-emergence herbicidal effect; assay type: in vivo; conditions: assessed visually after about 3 weeks vs untreated controls
Method in brief: as §2

Stellaria media [19] = test: Post-emergence herbicidal effect; assay type: in vivo; conditions: assessed visually after about 3 weeks vs untreated controls
Method in brief: as §2

Veronica persica [20] = test: Post-emergence herbicidal effect; assay type: in vivo; conditions: assessed visually after about 3 weeks vs untreated controls
Method in brief: as §2

Echinochloa crus-galli [21] = test: Pre-emergence herbicidal effect; assay type: in vivo; conditions: scored visually after 3 weeks
Method in brief: as §1

Setaria viridis [22] = test: Post-emergence herbicidal effect; assay type: in vivo; conditions: 320 g/ha, assessed visually after about 3 weeks vs untreated controls
Method in brief: as §2

logP (HCOOH) = assay type: physicochemical; conditions: HCOOH
Source text: Table 2 (physicochemical characterization of selected synthesis examples)

| Compound | ALOMY pre-emergence efficacy (herbicidal activity) (Alopecurus myosuroides [2]; Dosage 320 g/ha) | AMARE pre-emergence efficacy (herbicidal activity) (Amaranthus retroflexus [3]; Dosage 80 g/ha) | AMARE pre-emergence efficacy (herbicidal activity) (Amaranthus retroflexus [3]; Dosage 320 g/ha) | LOLMU pre-emergence efficacy (herbicidal activity) (Lolium multiflorum [4]; Dosage 320 g/ha) | MATIN pre-emergence efficacy (herbicidal activity) (Matricaria inodora [5]; Dosage 80 g/ha) | MATIN pre-emergence efficacy (herbicidal activity) (Matricaria inodora [5]; Dosage 320 g/ha) | POLCO pre-emergence efficacy (herbicidal activity) (Polygonum convolvulus [6]; Dosage 320 g/ha) | SETVI pre-emergence efficacy (herbicidal activity) (Setaria viridis [7]; Dosage 320 g/ha) | STEME pre-emergence efficacy (herbicidal activity) (Stellaria media [8]; Dosage 80 g/ha) | STEME pre-emergence efficacy (herbicidal activity) (Stellaria media [8]; Dosage 320 g/ha) | VERPE pre-emergence efficacy (herbicidal activity) (Veronica persica [9]; Dosage 80 g/ha) | VERPE pre-emergence efficacy (herbicidal activity) (Veronica persica [9]; Dosage 320 g/ha) | VIOTR pre-emergence efficacy (herbicidal activity) (Viola tricolor [10]; Dosage 80 g/ha) | VIOTR pre-emergence efficacy (herbicidal activity) (Viola tricolor [10]; Dosage 320 g/ha) | post-emergence efficacy ALOMY (Alopecurus myosuroides [11]) | post-emergence efficacy VIOTR (Viola tricolor [12]; 320 g/ha) | post-emergence efficacy ABUTH (Abutilon theophrasti [13]; 320 g/ha) | post-emergence efficacy AMARE (Amaranthus retroflexus [14]; 320 g/ha) | post-emergence efficacy STEME (Stellaria media [19]; 320 g/ha) | post-emergence efficacy VERPE (Veronica persica [20]; 320 g/ha) | further results |
| --- | --- | --- | --- | --- | --- | --- | --- | --- | --- | --- | --- | --- | --- | --- | --- | --- | --- | --- | --- | --- | --- |
| Cc1cc2c(o1)CCCC2Nc1ncc(C(F)(F)F)c(N)n1 (racemic) [compound 28] | 90% | 100% | 100% | 100% | 90% | 100% | 100% | 100% | 100% | 100% | 100% | 100% | 90% | 100% | 100% | 90% | – | – | – | – | ABUTH pre-emergence efficacy (herbicidal activity) (Abutilon theophrasti [1]): 80% |
| Cc1cc2c(s1)CCCC2Nc1ncc(SC(F)(F)F)c(C)n1 (racemic) [compound 80] | 70% | 100% | 100% | – | 70% | 90% | 100% | 100% | 100% | 100% | 100% | 100% | 90% | 100% | – | 100% | 90% | 100% | 100% | 100% | AVEFA pre-emergence efficacy (herbicidal activity) (Avena fatua): 60%; POLCO pre-emergence efficacy (herbicidal activity) (Polygonum convolvulus [6]; Dosage 80 g/ha): 100%; SETVI pre-emergence efficacy (herbicidal activity) (Setaria viridis [7]; Dosage 80 g/ha): 100%; post-emergence efficacy ABUTH (Abutilon theophrasti [13]; 80 g/ha): 80%; post-emergence efficacy AMARE (Amaranthus retroflexus [14]; 80 g/ha): 100%; post-emergence efficacy ECHCG (Echinochloa crus-galli [15]): 70%; post-emergence efficacy PHBPU (Ipomoea purpurea; 80 g/ha): 90%; post-emergence efficacy PHBPU (Ipomoea purpurea; 320 g/ha): 100%; post-emergence efficacy LOLMU (Lolium multiflorum [16]; 80 g/ha): 70%; post-emergence efficacy LOLMU (Lolium multiflorum [16]; 320 g/ha): 90%; post-emergence efficacy MATIN (Matricaria inodora [17]; 80 g/ha): 70%; post-emergence efficacy MATIN (Matricaria inodora [17]; 320 g/ha): 90%; post-emergence efficacy POLCO (Polygonum convolvulus [18]; 320 g/ha): 60%; post-emergence efficacy STEME (Stellaria media [19]; 80 g/ha): 100%; post-emergence efficacy VERPE (Veronica persica [20]; 80 g/ha): 90%; post-emergence efficacy VIOTR (Viola tricolor [12]; 80 g/ha): 100% |
| Cc1cc2c(s1)CCCC2Nc1nc(N)c(-c2cncc(Cl)c2)c(C(F)F)n1 (racemic) [compound 300] | – | – | 100% | – | 80% | 90% | – | 70% | 80% | 100% | – | – | – | 100% | 70% | – | – | 90% | 90% | – | post-emergence efficacy PHBPU (Ipomoea purpurea; 320 g/ha): 60%; post-emergence efficacy STEME (Stellaria media [19]; 80 g/ha): 60% |
| Cc1cc2c(s1)CCC[C@H]2Nc1ncc2c(n1)CCCS2(=O)=O [compound 44] | 100% | 100% | 100% | 100% | 100% | 100% | 100% | 100% | 100% | 100% | 100% | 100% | – | – | 90% | 80% | 90% | 100% | 100% | 100% | ABUTH pre-emergence efficacy (herbicidal activity) (Abutilon theophrasti [1]): 100%; ALOMY pre-emergence efficacy (herbicidal activity) (Alopecurus myosuroides [2]; Dosage 80 g/ha): 80%; ECHCG pre-emergence efficacy (herbicidal activity) (Echinochloa crus-galli [21]; Dosage 80 g/ha): 100%; ECHCG pre-emergence efficacy (herbicidal activity) (Echinochloa crus-galli [21]; Dosage 320 g/ha): 100%; POLCO pre-emergence efficacy (herbicidal activity) (Polygonum convolvulus [6]; Dosage 80 g/ha): 100%; SETVI pre-emergence efficacy (herbicidal activity) (Setaria viridis [7]; Dosage 80 g/ha): 100%; post-emergence efficacy ECHCG (Echinochloa crus-galli [15]): 100%; post-emergence efficacy PHBPU (Ipomoea purpurea; 320 g/ha): 100%; post-emergence efficacy POLCO (Polygonum convolvulus [18]; 320 g/ha): 80%; post-emergence efficacy SETVI (Setaria viridis [22]): 100% |
| Cc1cc2c(s1)CCCC2Nc1nc(N)c(C#N)c(C(C)F)n1 (racemic) [compound 320] | – | – | 100% | – | – | 100% | 100% | 100% | – | 100% | – | 100% | – | 100% | 80% | 100% | 80% | 60% | 60% | 100% | post-emergence efficacy SETVI (Setaria viridis [22]): 60% |
| C/C(=N\O)c1cnc(NC2CCCc3sc(Cl)cc32)nc1C (racemic) [compound 260] | 90% | 100% | 100% | 100% | 100% | 100% | 100% | 100% | 100% | 100% | 100% | 100% | 100% | 100% | – | 90% | 90% | 90% | 100% | 100% | ALOMY pre-emergence efficacy (herbicidal activity) (Alopecurus myosuroides [2]; Dosage 80 g/ha): 70%; AVEFA pre-emergence efficacy (herbicidal activity) (Avena fatua): 90%; ECHCG pre-emergence efficacy (herbicidal activity) (Echinochloa crus-galli [21]; Dosage 320 g/ha): 100%; LOLMU pre-emergence efficacy (herbicidal activity) (Lolium multiflorum [4]; Dosage 80 g/ha): 50%; POLCO pre-emergence efficacy (herbicidal activity) (Polygonum convolvulus [6]; Dosage 80 g/ha): 80%; SETVI pre-emergence efficacy (herbicidal activity) (Setaria viridis [7]; Dosage 80 g/ha): 50%; post-emergence efficacy ABUTH (Abutilon theophrasti [13]; 80 g/ha): 80%; post-emergence efficacy AMARE (Amaranthus retroflexus [14]; 80 g/ha): 90%; post-emergence efficacy ECHCG (Echinochloa crus-galli [15]): 100%; post-emergence efficacy PHBPU (Ipomoea purpurea; 80 g/ha): 70%; post-emergence efficacy PHBPU (Ipomoea purpurea; 320 g/ha): 90%; post-emergence efficacy LOLMU (Lolium multiflorum [16]; 320 g/ha): 70%; post-emergence efficacy MATIN (Matricaria inodora [17]; 80 g/ha): 70%; post-emergence efficacy MATIN (Matricaria inodora [17]; 320 g/ha): 90%; post-emergence efficacy POLCO (Polygonum convolvulus [18]; 80 g/ha): 60%; post-emergence efficacy POLCO (Polygonum convolvulus [18]; 320 g/ha): 60%; post-emergence efficacy SETVI (Setaria viridis [22]): 100%; post-emergence efficacy STEME (Stellaria media [19]; 80 g/ha): 80%; post-emergence efficacy VIOTR (Viola tricolor [12]; 80 g/ha): 70% |
| CS(=O)(=O)c1cnc(NC2CCCc3ccsc32)nc1N (racemic) [compound 69] | 80% | 100% | 100% | 100% | 100% | 100% | 100% | 100% | 100% | 100% | 100% | 100% | 100% | 100% | 80% | 100% | 80% | 90% | 90% | 80% | ABUTH pre-emergence efficacy (herbicidal activity) (Abutilon theophrasti [1]): 100%; ECHCG pre-emergence efficacy (herbicidal activity) (Echinochloa crus-galli [21]; Dosage 320 g/ha): 100%; post-emergence efficacy AMARE (Amaranthus retroflexus [14]; 80 g/ha): 20%; post-emergence efficacy ECHCG (Echinochloa crus-galli [15]): 80%; post-emergence efficacy VIOTR (Viola tricolor [12]; 80 g/ha): 80%; logP (HCOOH) (logP (HCOOH)): solid; m.p.: 129.9° C.; logP (HCOOH): 1.86; 1H NMR (CDCl3, 400 MHZ, δ in ppm): ): |
